Test results: US11779618B2, “Treatment of topical and systemic bacterial infections” (priority 2014, dated 2023)

Tested on: S. aureus 8588
Experiment: Effectiveness against S. aureus 8588 (absorbance, Mueller-Hinton broth)
Format: cell-based
Details: 0.01 mg/ml ampicillin (below MIC)
Source text: The absorbance readings of treatments above the MIC were similar to the negative control of Mueller-Hinton broth alone indicating no bacterial growth.
The absorbance readings of the phage K treated wells were similar to the negative control Mueller-Hinton broth alone.

Compound: CC1(C)S[C@@H]2[C@H](NC(=O)[C@H](N)c3ccccc3)C(=O)N2[C@H]1C(=O)O [ampicillin]
- effect on bacterial growth: has some effect on bacterial growth but is not totally effective
